From the NIST ThermoML archive (doi:10.1016/j.jct.2011.01.008)
Numbers after ± are expanded uncertainties.

Legend:
[1] = refractive index (Na D-line) (dimensionless); xn = mol fraction of the nth substance listed; details: 298.15 K, 96 kPa, Liquid, Standard Abbe refractometry
[2] = xn = mol fraction of the nth substance listed; details: 96 kPa, Liquid, Vibrating tube method

CCCCC=O [pentanal] + CCOS(=O)(=O)[O-].CCn1cc[n+](C)c1
[1]
Details | refractive index
x1 = 0.0792 | 1.4793 ± 0.0008
x1 = 0.101 | 1.4788 ± 0.0008
x1 = 0.2039 | 1.4759 ± 0.0007
x1 = 0.3008 | 1.4718 ± 0.0007
x1 = 0.4074 | 1.4672 ± 0.0007
x1 = 0.5048 | 1.4621 ± 0.0006
x1 = 0.6047 | 1.4554 ± 0.0006
x1 = 0.7012 | 1.4486 ± 0.0006
x1 = 0.8024 | 1.4403 ± 0.0006
x1 = 0.897 | 1.431 ± 0.0006
x1 = 0.9513 | 1.4231 ± 0.0006
x1 = 1 | 1.396 ± 0.0005

[2]
Details | mass density [kg/m3]
288.15 K, x1 = 0.0792 | 1218.05 ± 2.6
288.15 K, x1 = 0.101 | 1213.67 ± 2.5
288.15 K, x1 = 0.3008 | 1168.57 ± 1.7
288.15 K, x1 = 0.4074 | 1139.93 ± 1.4
288.15 K, x1 = 0.6047 | 1073.97 ± 0.88
288.15 K, x1 = 0.7012 | 1036.82 ± 0.73
288.15 K, x1 = 0.897 | 935.22 ± 0.7
288.15 K, x1 = 0.9513 | 896.87 ± 1.2
288.15 K, x1 = 1 | 814.15 ± 0.24
288.16 K, x1 = 0.2039 | 1191.69 ± 2.1
288.16 K, x1 = 0.5048 | 1109.32 ± 1.1
288.16 K, x1 = 0.8024 | 990.74 ± 0.66
293.14 K, x1 = 0.0792 | 1215 ± 2.6
293.14 K, x1 = 1 | 809.45 ± 0.24
293.15 K, x1 = 0.101 | 1210.75 ± 2.5
293.15 K, x1 = 0.2039 | 1188.69 ± 2.1
293.15 K, x1 = 0.3008 | 1165.47 ± 1.7
293.15 K, x1 = 0.4074 | 1136.9 ± 1.4
293.15 K, x1 = 0.5048 | 1106.25 ± 1.1
293.15 K, x1 = 0.6047 | 1070.53 ± 0.88
293.15 K, x1 = 0.7012 | 1033.26 ± 0.73
293.15 K, x1 = 0.8024 | 986.74 ± 0.67
293.15 K, x1 = 0.897 | 931.08 ± 0.7
293.15 K, x1 = 0.9513 | 892.5 ± 1.2
298.14 K, x1 = 0.0792 | 1211.93 ± 2.6
298.14 K, x1 = 0.101 | 1207.59 ± 2.5
298.14 K, x1 = 0.2039 | 1185.49 ± 2
298.14 K, x1 = 0.3008 | 1162.15 ± 1.7
298.14 K, x1 = 0.4074 | 1133.5 ± 1.4
298.14 K, x1 = 0.5048 | 1102.7 ± 1.1
298.14 K, x1 = 0.6047 | 1066.69 ± 0.87
298.14 K, x1 = 0.7012 | 1029.35 ± 0.72
298.14 K, x1 = 0.8024 | 982.52 ± 0.67
298.14 K, x1 = 0.897 | 926.62 ± 0.7
298.14 K, x1 = 0.9513 | 887.82 ± 1.2
298.14 K, x1 = 1 | 804.73 ± 0.24
303.14 K, x1 = 0.101 | 1204.47 ± 2.5
303.14 K, x1 = 0.2039 | 1182.28 ± 2
303.14 K, x1 = 0.3008 | 1158.83 ± 1.7
303.14 K, x1 = 0.4074 | 1130.07 ± 1.4
303.14 K, x1 = 0.5048 | 1099.13 ± 1.1
303.14 K, x1 = 0.6047 | 1062.78 ± 0.87
303.14 K, x1 = 0.7012 | 1025.33 ± 0.72
303.14 K, x1 = 0.8024 | 978.11 ± 0.67
303.14 K, x1 = 0.897 | 921.84 ± 0.7
303.14 K, x1 = 0.9513 | 882.85 ± 1.2
303.15 K, x1 = 0.0792 | 1208.72 ± 2.5
303.15 K, x1 = 1 | 799.97 ± 0.24
308.14 K, x1 = 0.101 | 1201.4 ± 2.4
308.14 K, x1 = 0.2039 | 1179.03 ± 2
308.14 K, x1 = 0.4074 | 1126.55 ± 1.3
308.14 K, x1 = 0.5048 | 1095.35 ± 1.1
308.14 K, x1 = 0.6047 | 1058.77 ± 0.86
308.14 K, x1 = 0.7012 | 1021.17 ± 0.72
308.14 K, x1 = 0.897 | 916.87 ± 0.71
308.14 K, x1 = 0.9513 | 877.74 ± 1.2
308.15 K, x1 = 0.0792 | 1205.39 ± 2.5
308.15 K, x1 = 0.3008 | 1155.36 ± 1.7
308.15 K, x1 = 0.8024 | 973.48 ± 0.67
308.15 K, x1 = 1 | 795.17 ± 0.24
313.14 K, x1 = 0.0792 | 1201.93 ± 2.5
313.14 K, x1 = 0.2039 | 1175.7 ± 2
313.14 K, x1 = 0.4074 | 1122.78 ± 1.3
313.14 K, x1 = 0.5048 | 1091.33 ± 1.1
313.14 K, x1 = 0.6047 | 1054.63 ± 0.86
313.14 K, x1 = 0.7012 | 1016.96 ± 0.72
313.14 K, x1 = 0.897 | 911.86 ± 0.69
313.14 K, x1 = 0.9513 | 872.76 ± 1.2
313.14 K, x1 = 1 | 790.33 ± 0.24
313.15 K, x1 = 0.101 | 1198.11 ± 2.4
313.15 K, x1 = 0.3008 | 1151.83 ± 1.7
313.15 K, x1 = 0.8024 | 966.65 ± 0.67
318.14 K, x1 = 0.0792 | 1198.39 ± 2.5
318.14 K, x1 = 0.2039 | 1172.28 ± 2
318.14 K, x1 = 0.5048 | 1087.33 ± 1.1
318.14 K, x1 = 0.6047 | 1050.4 ± 0.85
318.14 K, x1 = 0.7012 | 1012.64 ± 0.72
318.14 K, x1 = 0.8024 | 962.44 ± 0.68
318.14 K, x1 = 0.897 | 906.82 ± 0.7
318.14 K, x1 = 0.9513 | 867.68 ± 1.2
318.14 K, x1 = 1 | 785.46 ± 0.24
318.15 K, x1 = 0.101 | 1194.8 ± 2.4
318.15 K, x1 = 0.3008 | 1148.23 ± 1.6
318.15 K, x1 = 0.4074 | 1119.06 ± 1.3
323.14 K, x1 = 0.0792 | 1195.73 ± 2.5
323.14 K, x1 = 0.2039 | 1168.79 ± 2
323.14 K, x1 = 0.5048 | 1083.27 ± 1.1
323.14 K, x1 = 0.6047 | 1046.09 ± 0.85
323.14 K, x1 = 0.8024 | 959.29 ± 0.68
323.14 K, x1 = 0.9513 | 862.54 ± 1.2
323.14 K, x1 = 1 | 780.55 ± 0.24
323.15 K, x1 = 0.101 | 1191.43 ± 2.4
323.15 K, x1 = 0.3008 | 1144.59 ± 1.6
323.15 K, x1 = 0.4074 | 1115.15 ± 1.3
323.15 K, x1 = 0.7012 | 1008.39 ± 0.71
323.15 K, x1 = 0.897 | 901.88 ± 0.72

CCC=O [propanal] + CCOS(=O)(=O)[O-].CCn1cc[n+](C)c1
[1]
Details | refractive index
x1 = 0.077 | 1.4789 ± 0.0008
x1 = 0.1702 | 1.4768 ± 0.0007
x1 = 0.2146 | 1.473 ± 0.0007
x1 = 0.3671 | 1.4641 ± 0.0007
x1 = 0.4184 | 1.4627 ± 0.0007
x1 = 0.5246 | 1.4532 ± 0.0006
x1 = 0.616 | 1.4467 ± 0.0006
x1 = 0.7074 | 1.4369 ± 0.0006
x1 = 0.8104 | 1.426 ± 0.0006
x1 = 0.9022 | 1.41 ± 0.0006
x1 = 0.9521 | 1.3854 ± 0.0007
x1 = 1 | 1.3648 ± 0.0005

[2]
Details | mass density [kg/m3]
288.14 K, x1 = 0.1702 | 1215.95 ± 2.3
288.14 K, x1 = 0.4184 | 1170.49 ± 1.4
288.14 K, x1 = 1 | 807.26 ± 0.24
288.15 K, x1 = 0.2146 | 1209 ± 2.1
288.15 K, x1 = 0.3671 | 1182.78 ± 1.6
288.15 K, x1 = 0.5246 | 1139.5 ± 1.1
288.15 K, x1 = 0.616 | 1108.79 ± 0.93
288.15 K, x1 = 0.7074 | 1069.7 ± 0.8
288.15 K, x1 = 0.8104 | 1012.95 ± 0.8
288.15 K, x1 = 0.9022 | 936.46 ± 1
288.15 K, x1 = 0.9521 | 876.3 ± 1.4
288.16 K, x1 = 0.077 | 1227.88 ± 2.6
293.15 K, x1 = 0.077 | 1224.4 ± 2.6
293.15 K, x1 = 0.1702 | 1212.43 ± 2.2
293.15 K, x1 = 0.5246 | 1136.2 ± 1.1
293.15 K, x1 = 0.616 | 1105.04 ± 0.92
293.15 K, x1 = 0.7074 | 1066.43 ± 0.8
293.15 K, x1 = 1 | 801.06 ± 0.24
293.16 K, x1 = 0.2146 | 1205.39 ± 2.1
293.16 K, x1 = 0.3671 | 1178.94 ± 1.6
293.16 K, x1 = 0.4184 | 1166.66 ± 1.4
293.16 K, x1 = 0.8104 | 1008.26 ± 0.81
293.16 K, x1 = 0.9022 | 931.16 ± 0.99
293.16 K, x1 = 0.9521 | 870.71 ± 1.4
298.15 K, x1 = 0.1702 | 1208.92 ± 2.2
298.15 K, x1 = 0.5246 | 1132.3 ± 1.1
298.15 K, x1 = 0.616 | 1101.02 ± 0.92
298.15 K, x1 = 1 | 794.85 ± 0.24
298.16 K, x1 = 0.077 | 1220.94 ± 2.6
298.16 K, x1 = 0.2146 | 1201.81 ± 2.1
298.16 K, x1 = 0.3671 | 1175.21 ± 1.6
298.16 K, x1 = 0.4184 | 1162.88 ± 1.4
298.16 K, x1 = 0.7074 | 1062.18 ± 0.8
298.16 K, x1 = 0.8104 | 1003.73 ± 0.81
298.16 K, x1 = 0.9022 | 925.91 ± 1
298.16 K, x1 = 0.9521 | 865.19 ± 1.4
303.15 K, x1 = 0.077 | 1217.48 ± 2.6
303.15 K, x1 = 0.5246 | 1128.46 ± 1.1
303.15 K, x1 = 0.7074 | 1058.06 ± 0.8
303.15 K, x1 = 1 | 788.72 ± 0.24
303.16 K, x1 = 0.1702 | 1205.39 ± 2.2
303.16 K, x1 = 0.2146 | 1198.24 ± 2
303.16 K, x1 = 0.3671 | 1171.5 ± 1.5
303.16 K, x1 = 0.4184 | 1159.08 ± 1.4
303.16 K, x1 = 0.616 | 1097.06 ± 0.91
303.16 K, x1 = 0.8104 | 999.38 ± 0.81
303.16 K, x1 = 0.9022 | 920.77 ± 1
303.16 K, x1 = 0.9521 | 859.8 ± 1.4
308.15 K, x1 = 0.077 | 1214.04 ± 2.6
308.15 K, x1 = 0.2146 | 1194.69 ± 2
308.15 K, x1 = 0.3671 | 1167.83 ± 1.5
308.15 K, x1 = 0.4184 | 1155.38 ± 1.4
308.15 K, x1 = 0.8104 | 995.49 ± 0.82
308.15 K, x1 = 0.9022 | 915.5 ± 1
308.15 K, x1 = 0.9521 | 854.41 ± 1.4
308.16 K, x1 = 0.1702 | 1201.91 ± 2.2
308.16 K, x1 = 0.5246 | 1124.75 ± 1.1
308.16 K, x1 = 0.616 | 1093.39 ± 0.9
308.16 K, x1 = 0.7074 | 1054.45 ± 0.79
308.16 K, x1 = 1 | 782.55 ± 0.24
313.14 K, x1 = 0.1702 | 1198.61 ± 2.2
313.14 K, x1 = 0.616 | 1089.32 ± 0.9
313.14 K, x1 = 0.7074 | 1050.7 ± 0.8
313.15 K, x1 = 0.077 | 1210.68 ± 2.5
313.15 K, x1 = 0.3671 | 1164.21 ± 1.5
313.15 K, x1 = 0.4184 | 1151.8 ± 1.4
313.15 K, x1 = 0.5246 | 1121.2 ± 1.1
313.15 K, x1 = 0.8104 | 990.4 ± 0.83
313.15 K, x1 = 0.9022 | 910.11 ± 1
313.15 K, x1 = 0.9521 | 848.67 ± 1.4
313.15 K, x1 = 1 | 776.53 ± 0.24
313.16 K, x1 = 0.2146 | 1191.34 ± 2
